Experimental data published in patent publication US12599611B2, “Methods and compositions for treating seizure disorders in pediatric patients” (Neurelis, Inc., priority 2021, dated 2026).

System: beta frequency by EEG
Assay: EEG monitoring of beta rhythm / beta frequency after diazepam administration
Conditions: after intranasal administration of 20 mg of diazepam via an intranasal composition

CN1C(=O)CN=C(c2ccccc2)c2cc(Cl)ccc21 [diazepam, 7-chloro-1,3-dihydro-1-methyl-5-phenyl-1,4-benzodiazepin-2-one]
time to changes in beta frequency (EEG): ≤ 10 min
